Values of other authors as cited in patent US6924273B2, “Chondroprotective/restorative compositions and methods of use thereof” (priority 2000, dated 2005).
Values belong to the molecule of their own block, whether it stands above or below them.

Legend:
[1] = oral administration
mice = settings: 5000 mg/kg orally
rats = settings: 5000 mg/kg orally
[2] = oral administration; remark: listed apart in the source

Molecule: N[C@H]1C(O)O[C@H](CO)[C@@H](O)[C@@H]1O.O=S(=O)(O)O (some centres unmarked) [Glucosamine sulfate]
absorbed [1]: greater than 90%
mortality (no LD50 established) (mice): no mortality
mortality (no LD50 established) (rats): no mortality

Molecule: N[C@H]1C(O)O[C@H](CO)[C@@H](O)[C@@H]1O (some centres unmarked) [Glucosamine]
solubility in water: very soluble in water

bioavailability [2]: around 15%
Molecule: Chondroitin sulfate [CS]
